According to patent US10377741B2, “Substituted heteroaryl aldehyde compounds and methods for their use in increasing tissue oxygenation” (Global Blood Therapeutics, Inc., priority 2011, dated 2019):

Tests used:
[1] = system: human HbS; details: transgenic mice producing human HbS, cited from earlier work
[2] = target: hemoglobin (Homo sapiens, UniProt P68871+P69905); details: in vitro and in vivo; cited from earlier work
[3] = system: whole blood; test: Whole blood assay: oxygen equilibrium curves of whole blood; format: cell-based, human (homozygous sickle cell patients); details: compound at 1000 μM; hematocrit 20%, 1 hour at 37° C.
How it was run: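 Homozygous sickle cell patient blood, hematocrit 20% in autologous plasma, incubated 1 h at 37° C with or without compound (1000 μM unless noted). Diluted into Hemox buffer pH 7.4, oxygenated then deoxygenated with nitrogen; OEC fitted to Hill model for p50, reported as delta p50%.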

[4] = target: T1, purified HBS (Homo sapiens, UniProt P68871+P69905, E7V); test: Polymerization assay (delay time of HbS polymerization); format: biochemical, human (homozygous sickle cell patients); details: percent delay (% DT) vs HBS alone; 50 μM purified HBS, 1.8 M potassium phosphate pH 7.4
T1 construct: HbS was purified by a modified procedure; from tissue; host or cells: blood of homozygous sickle cell patients (CHORI); for the polymerization assay purified by the CRO VIRUSYS
Method: Polymerization assays are carried out in vitro using purified HBS exchanged into 1.8 M potassium phosphate buffer at pH 7.4. Using a slightly modified protocol (Antonini and Brunori, 1971), HbS is purified by the CRO VIRUSYS, from blood obtained from homozygous sickle cell patients through the Hemoglobinopathy Center at Children's Hospital Oakland Research Institute (CHORI) with Institutional Review Board approval. Compounds are prepared in 100% DMSO and a desired amount is added to 50 μM of purified HBS at a final DMSO concentration of 0.3%. Final potassium phosphate concentration is adjusted to 1.8 M using a combination of 2.5 M potassium phosphate stock solution and water at pH 7.4. The reaction mixture is incubated for an hour at 37° C. and then transferred into a 24-well plate for deoxygenation in a glove box containing 99.5% nitrogen and 0.5% oxygen. The 24-well plate is not covered and incubated at 4° C. on a plate cooler inside the glove box for one and a half hours. Fifty μL of the reaction mixture is transferred into a 96-well plate and the absorbance at 700 nm is measured every minute for one hour at 37° C. in a plate reader located inside the glove box. A plot of the absorbance against time is fitted using a Boltzman sigmoidal fit and the delay time (from zero to time at half Vmax) is measured. To compare and rank compounds, delay times are expressed as percent delay (% DT), which is defined as the difference in delay times for HBS/compound and HBS alone multiplied by 100 and divided by the delay time for HBS alone.
Compounds listed below have been tested in the polymerization assay. Activity ranges are defined by the number of dagger (†) symbols indicated. † denotes activity ≥40% but ≤80%; †† denotes activity >80% but ≤120%; ††† denotes activity >120% but ≤140%; †††† denotes activity >160%.

[5] = target: T2, purified Hemoglobin S (HbS) (Homo sapiens, UniProt P68871+P69905, E7V); test: Modulation of hemoglobin oxygen affinity: oxygen equilibrium curves (HEMOX) in purified HbS; format: biochemical, human (homozygous sickle cell patients); details: compound at 30 μM; 25 μM purified HbS, 45 min at 37° C.
T2 construct: HbS was purified by a modified procedure; from tissue; host or cells: blood of homozygous sickle cell patients (CHORI); for the polymerization assay purified by the CRO VIRUSYS
How it was run: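 HbS from homozygous sickle cell patient blood, 25 μM in HEMOX buffer pH 7.4, incubated 45 min at 37° C with compound (30 μM unless noted). Air-saturated then deoxygenated with N2; p50 from Hill fit; delta p50% = (control p50 − treated p50)/control p50 × 100.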

[6] = target: T3, HbS/A (Homo sapiens, UniProt P68871+P69905, E7V); test: R/T assay (relaxed-to-tense transition under deoxygenated conditions); format: biochemical, human (homozygous sickle cell patients); details: 3 μM HbS/A, % R remaining vs no treatment
T3 construct: A mixture of HbS/A was purified from blood; from tissue; host or cells: blood of homozygous sickle cell patients (CHORI)
How it was run: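 Purified HbS/A (3 μM final) incubated 1 hr at 37° C with compounds (3 μM to 100 μM) in potassium phosphate buffer pH 7.4 with 30 μM DPG, then deoxygenated under N2 with 300–700 nm spectra every 5 min for 2 hours. Delta R is % R state retained versus untreated, by linear regression over all wavelengths.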

SMILES	melting point	survival times ([1]; extreme hypoxia (5% oxygen))	hypoxia-induced sickled red blood cells ([1]; hypoxic conditions, compared to the non-treated mice)	hemoglobin modulator activity [2]	delta p50% Values for Whole Blood Assay [3]	% delta Delay [4]	delta p50% [5]	delta R ([6]; compound at 30 μM)	delta R ([6]; compound at 9 μM)
Cl.O=Cc1ccncc1OCc1ccc(C(=O)O)cn1	192 to 194 °C								
O=Cc1ccc(CO)o1 [Compound 5HMF, 5-hydroxymethyl-2-furfuraldehyde]		significantly improved survival times	reduced amounts of hypoxia-induced sickled red blood cells	potent hemoglobin modulator both in vitro and in vivo					
CC(C)n1nccc1-c1ncccc1COc1cncc(O)c1C=O [Compound 186, 3-hydroxy-5-((2-(1-isopropyl-1H-pyrazol-5-yl)pyridin-3-yl)methoxy)isonicotinaldehyde]					+++ (a delta p50% of 50 or greater)	†††† (activity >160%)	+++ (a delta p50% of 50 or greater)	+++ (a delta R of 50 or greater)	
O=Cc1c(O)cncc1OCc1ccccc1 [Compound 187, 3-(benzyloxy)-5-hydroxyisonicotinaldehyde]					+ (a delta p50% of between 0 and 29)	†† (activity >80% but ≤120%)	++ (a delta p50% of between 30 and 50)		+++ (a delta R of 50 or greater)
COc1cc(C=O)c(OCc2cccnc2-c2ccnn2C2CCC2)cn1 [Compound 195, 5-((2-(1-cyclobutyl-1H-pyrazol-5-yl)pyridin-3-yl)methoxy)-2-methoxyisonicotinaldehyde]					+++ (a delta p50% of 50 or greater)	††† (activity >120% but ≤140%)	+++ (a delta p50% of 50 or greater)	+++ (a delta R of 50 or greater)	
COc1cc(C=O)c(OCc2cccnc2-c2ccnn2CC2CCCCC2)cn1 [Compound 197, 5-((2-(1-(cyclohexylmethyl)-1H-pyrazol-5-yl)pyridin-3-yl)methoxy)-2-methoxyisonicotinaldehyde]					+++ (a delta p50% of 50 or greater)	† (activity ≥40% but ≤80%)	++ (a delta p50% of between 30 and 50)		+ (a delta R of between 0 and 30)
COc1cc(C=O)c(OCc2cccnc2-c2ccnn2C2CCCC2)cn1 [Compound 198, 5-((2-(1-cyclopentyl-1H-pyrazol-5-yl)pyridin-3-yl)methoxy)-2-methoxyisonicotinaldehyde]					+++ (a delta p50% of 50 or greater)	† (activity ≥40% but ≤80%)	+++ (a delta p50% of 50 or greater)	++ (a delta R of between 30 and 50)	
COc1cc(C=O)c(OCc2cccnc2-c2ccnn2CC(=O)O)cn1 [Compound 199, 2-(5-(3-((4-formyl-6-methoxypyridin-3-yloxy)methyl)pyridin-2-yl)-1H-pyrazol-1-yl)acetic acid]					+ (a delta p50% of between 0 and 29)	††† (activity >120% but ≤140%)	+++ (a delta p50% of 50 or greater)		+ (a delta R of between 0 and 30)
COc1cc(C=O)c(OCc2cccnc2-c2ccnn2CCC(=O)O)cn1 [Compound 202, 3-(5-(3-(((4-formyl-6-methoxypyridin-3-yl)oxy)methyl)pyridin-2-yl)-1H-pyrazol-1-yl)propanoic acid]					+ (a delta p50% of between 0 and 29)	††† (activity >120% but ≤140%)	+++ (a delta p50% of 50 or greater)		+ (a delta R of between 0 and 30)
CS(=O)(=O)NC(=O)c1ccc(COc2cnccc2C=O)nc1 [Compound 206, 2,2,2-trifluoroacetic acid:6-(((4-formylpyridin-3-yl)oxy)methyl)-N-(methylsulfonyl)nicotinamide (2:1)]	102 to 104 °C				+++ (a delta p50% of 50 or greater)	††† (activity >120% but ≤140%)			+ (a delta R of between 0 and 30)
